Where two headings read alike, the source gives them in different places.
Legend:
Type in all cases: cell-based
[1] = system: colon cancer cell line HCT 116; assay: Growth profile / viability of HCT116 colon cancer cells, XTT test; settings: Homo sapiens, HCT-116, 96 h, Control DMSO = 100%, read-out: percentage of viable cells, HCT116
Procedure: (§1) The effect of the compounds Z522-XXX on the growth profile of cancer cells which express Fer was tested. The cells that were tested were: the colon cancer cell lines HT29 and HCT 116, RKO. The effect of each of the compounds on FS cells, a non malingnant fibroblastic cell line, was also studied.
(§2) Generally, cells were seeded in 96 wells microplates and were left to grow untreated overnight. Each of the compounds was dissolved in DMSO and was then added to each well in a final concentration of 5 μM. The concentration of DMSO in each well was 0.4% v/v. Untreated cells and cells subjected to 0.4% DMSO alone, served as controls. The percentage of viable cells in each well was determined 96 hours after compounds addition, using the XTT test (Berridge, M. V. et al, 2005).

[2] = system: colon cancer cell line HT29; assay: Growth profile / viability of HT29 colon cancer cells, XTT test; settings: Homo sapiens, HT-29, 96 h, Control DMSO = 100%, read-out: percentage of viable cells, HT29
Procedure: as §1, §2

[3] = system: colon cancer cell line RKO; assay: Growth profile / viability of RKO colon cancer cells, XTT test; settings: 96 h, Control DMSO = 100%, read-out: percentage of viable cells, RKO
Procedure: as §1, §2

[4] = Viability of FS non malignant fibroblastic cells, XTT test; settings: FS cells (non-malignant fibroblastic cell line), Control DMSO = 100%, read-out: percentage of viable cells, FS
Procedure: as §1, §2

Compound	viability at 5 µM ([1]; first HCT116 column)	viability at 5 µM ([1]; second HCT116 column)	viability at 5 µM ([2]; first HT29 column)	viability at 5 µM ([2]; second HT29 column)	viability at 5 µM ([3]; first RKO column)	viability at 5 µM ([3]; second RKO column)	viability at 96 h, 5 µM ([4]; first FS column)	viability at 96 h, 5 µM ([4]; second FS column)
CN1CCN(C(=O)C2CCN(c3nn4cc(-c5ccc(N6CCN(C)CC6)cc5)nc4s3)CC2)CC1 [Compound Z522-0160, 2-{4-[(4-methylpiperazin-1-yl)carbonyl]-piperidin-1-yl}-6-[4-(4-methyl-piperazin-1-yl)-phenyl]imidazo[2,1-b][1,3,4]-thiadiazole]	105%	108%	117%	91%	92%	109%	101%	104%
CN1CCN(C(=O)C2CCN(c3nn4cc(-c5ccc(N6CCSCC6)cc5)nc4s3)CC2)CC1 [Compound Z522-0164, 2-{4-[(4-methylpiperazin-1-yl)carbonyl]-piperidin-1-yl}-6-(4-thiomorpholin-4-ylphenyl)-imidazo[2,1-b]-[1,3,4]thiadiazole]	80%	97%	50%	42%	60%	63%	104%	95%
CC1CCCN(c2ccc(-c3cn4nc(N5CCC(C(=O)N6CCN(C)CC6)CC5)sc4n3)cc2)C1 (stereo not drawn) [Compound Z522-0166, 2-{4-[(4-methylpiperazin-1-yl)carbonyl]-piperidin-1-yl}-6-[4-(3-methyl-piperidin-1-yl)-phenyl]imidazo[2,1-b][1,3,4]-thiadiazole]	30%	23%	4%	4%	6%	6%	101%	92%
CCN(CC)CCN(CC)C(=O)C1CCN(c2nn3cc(-c4ccc(Cl)cc4)nc3s2)CC1 [Compound Z522-0199, 1-[6-(4-chlorophenyl)imidazo[2,1-b][1,3,4]thiadiazol-2-yl]-N-[2-(diethylamino)ethyl]-N-ethylpiperidine-4-carboxamide]				1%			19%	21%
CN1CCC(N(C)C(=O)C2CCN(c3nn4cc(-c5ccc(Cl)cc5)nc4s3)CC2)CC1 [Compound Z522-0202, 1-[6-(4-chlorophenyl)imidazo[2,1-b][1,3,4]thiadiazol-2-yl]-N-methyl-N-(1-methylpiperidin-4-yl)piperidine-4-carboxamide]	5%		1%	0%			73%	69%
CN(C)CCN1CCN(C(=O)C2CCN(c3nn4cc(-c5ccc(Cl)cc5)nc4s3)CC2)CC1 [Compound Z522-0206]	1%						2%	6%
CN1CCC(N2CCN(C(=O)C3CCN(c4nn5cc(-c6ccc(Cl)cc6)nc5s4)CC3)CC2)CC1 [Compound Z522-0207, 6-(4-chlorophenyl)-2-(4-{[4-(1-methylpiperidin-4-yl)piperazin-1-yl]carbonyl}piperidin-1-yl)imidazo[2,1-b][1,3,4]thiadiazole]	0%	4%	3%	0%			3%	16%
O=C(C1CCN(c2nn3cc(-c4ccc(Cl)cc4)nc3s2)CC1)N1CCCCC1CCN1CCOCC1 (stereo not drawn) [Compound Z522-0211, 6-(4-chlorophenyl)-2-(4-{[2-(2-morpholin-4-ylethyl)piperidin-1-yl]carbonyl}piperidin-1-yl)imidazo[2,1-b][1,3,4]thiadiazole]	72%	61%	64%	60%			75%	81%
O=C(C1CCN(c2nn3cc(-c4ccc(Cl)cc4)nc3s2)CC1)N1CCCCC1CN1CCCC1 (stereo not drawn) [Compound Z522-0212, 6-(4-chlorophenyl)-2-(4-{[2-(pyrrolidin-1-ylmethyl)piperidin-1-yl]carbonyl}piperidin-1-yl)imidazo[2,1-b][1,3,4]thiadiazole]	2%		1%	0%				1%
CN(C)CCNC(=O)CN1CCN(C(=O)C2CCN(c3nn4cc(-c5ccc(Cl)cc5)nc4s3)CC2)CC1 [Compound Z522-0218, 2-[4-({1-[6-(4-chlorophenyl)imidazo[2,1-b][1,3,4]thiadiazol-2-yl]piperidin-4-yl}carbonyl)piperazin-1-yl]-N-[2-(dimethylamino)ethyl] acetamide]	51%	19%	3%	4%			82%	84%
CN(C)CCN(Cc1ccco1)C(=O)C1CCN(c2nn3cc(-c4ccc(Cl)cc4)nc3s2)CC1 [Compound Z522-0220, 1-[6-(4-chlorophenyl)imidazo[2,1-b][1,3,4]thiadiazol-2-yl]-N-[2-(dimethylamino)ethyl]-N-(2-furylmethyl)piperidine-4-carboxamide]	1%	3%	0%				61%	49%
CCN1CCN(CC2CCN(C(=O)C3CCN(c4nn5cc(-c6ccc(Cl)cc6)nc5s4)CC3)CC2)CC1 [Compound Z522-0221, 6-(4-chlorophenyl)-2-[4-({4-[(4-ethylpiperazin-1-yl)methyl]piperidin-1-yl}carbonyl)piperidin-1-yl]imidazo[2,1-b][1,3,4]thiadiazole]	1%	1%						
CCN(CC)CCN(CC)C(=O)C1CCN(c2nn3cc(-c4ccc(C(C)C)cc4)nc3s2)CC1 [Compound Z522-0222, N-[2-(diethylamino)ethyl]-N-ethyl-1-[6-(4-isopropylphenyl)imidazo[2,1-b][1,3,4]thiadiazol-2-yl]piperidine-4-carboxamide]	1%						56%	56%
CC(C)c1ccc(-c2cn3nc(N4CCC(C(=O)N5CCCN(C)CC5)CC4)sc3n2)cc1 [Compound Z522-0224, 6-(4-isopropylphenyl)-2-{4-[(4-methyl-1,4-diazepan-1-yl)carbonyl]piperidin-1-yl}imidazo[2,1-b][1,3,4]thiadiazole]	0%		0%	0%			60%	67%
CC(C)c1ccc(-c2cn3nc(N4CCC(C(=O)N(C)C5CCN(C)CC5)CC4)sc3n2)cc1 [Compound Z522-0225, 1-[6-(4-isopropylphenyl)imidazo[2,1-b][1,3,4]thiadiazol-2-yl]-N-methyl-N-(1-methylpiperidin-4-yl)piperidine-4-carboxamide]	1%	0%					65%	28%
CC(C)c1ccc(-c2cn3nc(N4CCC(C(=O)N5CCN(C6CCN(C)CC6)CC5)CC4)sc3n2)cc1 [Compound Z522-0230, 6-(4-isopropylphenyl)-2-(4-{[4-(1-methylpiperidin-4-yl)piperazin-1-yl]carbonyl}piperidin-1-yl)imidazo[2,1-b][1,3,4]thiadiazole]	2%	0%					22%	39%
CC(C)c1ccc(-c2cn3nc(N4CCC(C(=O)N5CCCCC5CCN5CCOCC5)CC4)sc3n2)cc1 (stereo not drawn) [Compound Z522-0234, 6-(4-isopropylphenyl)-2-(4-{[2-(2-morpholin-4-ylethyl)piperidin-1-yl]carbonyl}piperidin-1-yl)imidazo[2,1-b][1,3,4]thiadiazole]	60%	54%	12%	7%			62%	105%
CC(C)c1ccc(-c2cn3nc(N4CCC(C(=O)N5CCCCC5CN5CCCC5)CC4)sc3n2)cc1 (stereo not drawn) [Compound Z522-0235, 6-(4-isopropylphenyl)-2-(4-{[2-(pyrrolidin-1-ylmethyl)piperidin-1-yl]carbonyl}piperidin-1-yl)imidazo[2,1-b][1,3,4]thiadiazole]	1%	1%						14%
CCN1CCN(CC2CCN(C(=O)C3CCN(c4nn5cc(-c6ccc(C(C)C)cc6)nc5s4)CC3)CC2)CC1 [Compound Z522-0244, 2-[4-({4-[(4-ethylpiperazin-1-yl)methyl]piperidin-1-yl}carbonyl)piperidin-1-yl]-6-(4-isopropylphenyl) imidazo[2,1-b][1,3,4]thiadiazole]		0%	1%	0%		0%		

From US20180186815A1, “PHARMACEUTICAL COMPOSITIONS, METHODS FOR THEIR PREPARATION AND THEIR USE IN THE TREATMENT OF CANCER” (Urifer Ltd., priority 2016, published 2018)
